Laboratory results taken from article PMC8962522, “Direct interaction of TrkA/CD44v3 is essential for NGF-promoted aggressiveness of breast cancer cells” (Journal of Experimental & Clinical Cancer Research : CR, 2022).

How the values were obtained:
[1] = test system: TrkA; assay: nanoDSF peptide binding to TrkA; conditions: nanoscale differential scanning fluorimetry, Supplementary Fig. 6A & B
Procedure: To block the TrkA-CD44v3 association, 4 mimetic peptides of CD44v3 were designed corresponding to zone 1 [(K) STSSNTISAG], zone 2 (WEPNEENEDE), zone 3 (RDRHLSFSGSG) and zone 4 (IDDDEDFISST) (Fig. 2F & G). The binding capacities of the CD44v3 mimetic peptides to TrkA were then measured by MST (Fig. 2H). […] To confirm mimetic peptide 4 binding, we assessed its ability to bind TrkA using nanoscale differential scanning fluorimetry (nanoDSF; Supplementary Fig. 6A & B).
(§1) Supplementary file 13046_2022_2314_MOESM3_ESM.pdf: Additional file 3: Supplementary Figure 1. Validation of the ectopic expression of CD44 and/or TrkA in COS-7 cells. The expression of all CD44 isoforms (A), CD44 variant 3 (B), CD44 variant 6 (C) and TrkA ([…]; D) was evaluated by RT–qPCR (normalized using PUM-1). No expression of CD44, CD44 variants [3 or 6] or TrkA was detected in COS-7 cells (A-D) compared with that in cells transfected with the expression plasmid carrying each protein. […] Quantification of the PLA results was performed using ImageJ software (30 randomly chosen fields per condition of three different experiments). […] CD44v3 and CD44v6 levels at the plasma membrane were assessed by flow cytometry (A-D). The plasma membrane and total TrkA and CD44v3 levels were also quantified by confocal microscopy (E-H). […] The CD44v3/NGF interaction was evaluated using microscale thermophoresis (MST). […]

[2] = test system: CD44v3 in MDA-MB-231 cells; assay: Flow cytometry, plasma membrane CD44v3; type: cell-based; conditions: MDA-MB-231, flow cytometry
Source text: The CD44v3- and CD44v6-containing isoforms expressing respectively exon 8 and 11(Fig. 1A) can interact with growth factor receptors. Using COS-7 cells with low CD44 and TrkA expression (Supplementary Fig. 1A-D), we differentially expressed TrkA and CD44s or a CD44 variant, either CD44v3 or CD44v6 (Fig. 1B, supplementary Fig. 2). […] Additionally, we evaluated the expression of TrkA and CD44v3 at the membrane level or in cells by immunofluorescence in MDA-MB-231 cells.
as §1

[3] = cited from earlier work
Source text: With more functions than those of a membrane receptor, CD44 is a multifunctional platform implicated in numerous physiological and disease mechanisms. In cancer, it has many functions (e.g., adhesion, migration/invasion, growth, differentiation, and resistance to therapies) depending on the splice variant expressed, corresponding ligands, posttranscriptional modifications, and association with growth factors and different membrane proteins.

Substance	binding to TrkA by nanoDSF (in words) [1]	binding to TrkA by nanoDSF (in words) ([1]; listed as P4)	increase of plasma membrane CD44v3 ([2]; CD44v3-APC, histogram with No stim., NGF (5 min), NGF (30 min))	plasma membrane level of CD44v3 (in words) ([2]; NGF stimulation)	binding to heparin (in words) [3]
IDDDEDFISST [Peptide 4, mimetic peptide 4 (…) corresponding to the C-terminal region of CD44v3]	bound TrkA	binds to TrkA			
NGF: recombinant human β-NGF (Alomone Labs, Israel)			33%	increased the plasma membrane level of CD44v3	does not bind heparin
